Where two headings read alike, the source gives them in different places.
Columns and labels:
FAAH = biological target: T1, FAAH (Homo sapiens, UniProt O00519); experiment: FAAH fluorescence-based inhibitory assay; format: biochemical
T1 sequence (O00519 1-579): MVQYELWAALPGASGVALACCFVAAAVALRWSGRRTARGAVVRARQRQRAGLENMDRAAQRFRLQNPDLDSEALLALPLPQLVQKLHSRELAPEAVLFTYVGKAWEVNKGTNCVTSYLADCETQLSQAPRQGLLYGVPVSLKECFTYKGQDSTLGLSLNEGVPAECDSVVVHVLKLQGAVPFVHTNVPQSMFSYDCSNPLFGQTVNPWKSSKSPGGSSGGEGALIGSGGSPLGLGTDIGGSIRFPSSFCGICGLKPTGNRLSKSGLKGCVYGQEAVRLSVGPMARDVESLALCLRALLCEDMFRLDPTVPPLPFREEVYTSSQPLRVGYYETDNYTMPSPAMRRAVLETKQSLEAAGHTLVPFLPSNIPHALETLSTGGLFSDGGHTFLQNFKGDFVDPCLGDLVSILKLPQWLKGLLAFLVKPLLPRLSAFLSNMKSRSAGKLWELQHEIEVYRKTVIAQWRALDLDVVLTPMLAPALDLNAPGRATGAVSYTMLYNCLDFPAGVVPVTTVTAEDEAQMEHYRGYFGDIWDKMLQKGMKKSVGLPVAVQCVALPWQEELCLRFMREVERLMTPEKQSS

HDAC1 = HDAC1 (Homo sapiens, UniProt Q13547); experiment: HDAC 1 fluorogenic assay kit
Procedure: (§1) Test materials were stored at room temperature and stock solutions were prepared at 20 mg/ml in DMSO. Further dilutions were made in sterile distilled water immediately before being added to the reaction mixture containing a substrate, and the reaction was triggered by the addition of purified HDAC enzymes, Double distilled water was the negative control and trichostatin (1.5 ug/ml) was used as a positive control for validation of each study. The test procedure was as directed in the assay kits. The products of the reactions were measured by fluorometry at ex/em 350/450 nm using multi-well plate fluorometer Cytofluor 4000 (Applied Biosystem, Foster City, CA) or using SpectraMax i3× Multi-Mode Detection Platform from Molecular Devices (Sunnyvale, CA).
(§2) Statistical significance was assessed with a two-tail Student test. Deviations of ≤20% as compared to water control with p values below 0.05 were considered statistically significant.

MAGL = biological target: T2, MAGL (Homo sapiens, UniProt Q99685); experiment: MAGL inhibitory assay; format: biochemical
T2 construct: purchased Cayman 10007812
T2 sequence (Q99685 1-303): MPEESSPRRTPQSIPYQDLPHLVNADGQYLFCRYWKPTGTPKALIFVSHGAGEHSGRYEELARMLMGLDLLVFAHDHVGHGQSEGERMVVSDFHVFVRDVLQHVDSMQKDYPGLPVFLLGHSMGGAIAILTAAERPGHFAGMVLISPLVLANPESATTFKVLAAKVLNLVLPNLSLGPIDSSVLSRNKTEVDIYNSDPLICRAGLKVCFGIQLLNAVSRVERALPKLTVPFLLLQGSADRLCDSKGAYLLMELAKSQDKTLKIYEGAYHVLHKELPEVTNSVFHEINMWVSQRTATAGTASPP
Procedure: Each study was performed in duplicate and the results averaged.
The final concentration in each well was 10 μl of sample, 5.6 μM MAGL (Cayman Catalog #10007812) and 23.6 μM 2-Arachidonoyl Glycerol (Cayman catalog #62160).

HDAC10 = biological target: T3, HDAC10 (Homo sapiens, UniProt Q969S8)
T3 sequence (Q969S8 1-669): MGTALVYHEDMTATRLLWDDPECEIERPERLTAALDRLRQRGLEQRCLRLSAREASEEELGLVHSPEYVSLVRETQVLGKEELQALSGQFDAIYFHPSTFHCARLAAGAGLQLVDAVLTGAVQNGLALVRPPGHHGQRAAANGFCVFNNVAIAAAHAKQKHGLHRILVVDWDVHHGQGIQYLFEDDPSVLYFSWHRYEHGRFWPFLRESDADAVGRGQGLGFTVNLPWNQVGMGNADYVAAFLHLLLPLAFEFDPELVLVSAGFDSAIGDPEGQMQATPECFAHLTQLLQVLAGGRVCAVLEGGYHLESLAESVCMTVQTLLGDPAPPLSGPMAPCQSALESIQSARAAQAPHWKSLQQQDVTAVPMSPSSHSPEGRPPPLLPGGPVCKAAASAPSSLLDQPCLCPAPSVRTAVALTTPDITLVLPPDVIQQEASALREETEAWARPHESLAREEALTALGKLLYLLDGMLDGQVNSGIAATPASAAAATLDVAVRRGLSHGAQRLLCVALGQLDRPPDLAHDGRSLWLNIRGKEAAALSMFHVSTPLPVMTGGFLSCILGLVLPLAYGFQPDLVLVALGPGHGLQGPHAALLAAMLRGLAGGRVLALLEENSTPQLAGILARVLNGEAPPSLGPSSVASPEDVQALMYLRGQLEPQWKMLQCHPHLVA
Procedure: as §1, §2

HDAC2 = HDAC2 (Homo sapiens, UniProt Q92769)
Procedure: as §1, §2

HDAC 8 = biological target: T4, HDAC 8 (Homo sapiens, UniProt Q9BY41)
T4 sequence (Q9BY41 1-377): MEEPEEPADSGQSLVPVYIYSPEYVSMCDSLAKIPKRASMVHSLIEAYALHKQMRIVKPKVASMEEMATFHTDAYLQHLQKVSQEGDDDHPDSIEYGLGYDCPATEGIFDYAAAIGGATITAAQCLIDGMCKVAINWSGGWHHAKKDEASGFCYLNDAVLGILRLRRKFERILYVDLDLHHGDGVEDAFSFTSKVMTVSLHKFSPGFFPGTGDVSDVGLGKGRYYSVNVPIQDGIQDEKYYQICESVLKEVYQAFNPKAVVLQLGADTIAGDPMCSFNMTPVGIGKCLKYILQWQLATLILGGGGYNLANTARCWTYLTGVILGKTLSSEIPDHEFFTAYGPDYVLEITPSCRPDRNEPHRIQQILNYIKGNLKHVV
Procedure: as §1, §2

FABP-5 = biological target: T5, FABP-5 (Homo sapiens, UniProt Q01469); experiment: FABP-5 ELISA inhibitory assay; format: biochemical
T5 construct: purchased Raybiotech 268-10276-1

FABP-3 = biological target: T6, FABP-3 (Homo sapiens, UniProt P05413); experiment: FABP-3 ELISA inhibitory assay; format: biochemical
T6 construct: purchased Neovateinbio PT-452

HDAC 5 = HDAC 5 (Homo sapiens, UniProt Q9UQL6)
Procedure: as §1, §2

HDAC 9 = HDAC 9 (Homo sapiens, UniProt Q9UKV0)
Procedure: as §1, §2

HDAC 4 = HDAC 4 (Homo sapiens, UniProt P56524); experiment: HDAC 4 fluorogenic assay kit
Chain of HDAC 4 (P56524 whole entry): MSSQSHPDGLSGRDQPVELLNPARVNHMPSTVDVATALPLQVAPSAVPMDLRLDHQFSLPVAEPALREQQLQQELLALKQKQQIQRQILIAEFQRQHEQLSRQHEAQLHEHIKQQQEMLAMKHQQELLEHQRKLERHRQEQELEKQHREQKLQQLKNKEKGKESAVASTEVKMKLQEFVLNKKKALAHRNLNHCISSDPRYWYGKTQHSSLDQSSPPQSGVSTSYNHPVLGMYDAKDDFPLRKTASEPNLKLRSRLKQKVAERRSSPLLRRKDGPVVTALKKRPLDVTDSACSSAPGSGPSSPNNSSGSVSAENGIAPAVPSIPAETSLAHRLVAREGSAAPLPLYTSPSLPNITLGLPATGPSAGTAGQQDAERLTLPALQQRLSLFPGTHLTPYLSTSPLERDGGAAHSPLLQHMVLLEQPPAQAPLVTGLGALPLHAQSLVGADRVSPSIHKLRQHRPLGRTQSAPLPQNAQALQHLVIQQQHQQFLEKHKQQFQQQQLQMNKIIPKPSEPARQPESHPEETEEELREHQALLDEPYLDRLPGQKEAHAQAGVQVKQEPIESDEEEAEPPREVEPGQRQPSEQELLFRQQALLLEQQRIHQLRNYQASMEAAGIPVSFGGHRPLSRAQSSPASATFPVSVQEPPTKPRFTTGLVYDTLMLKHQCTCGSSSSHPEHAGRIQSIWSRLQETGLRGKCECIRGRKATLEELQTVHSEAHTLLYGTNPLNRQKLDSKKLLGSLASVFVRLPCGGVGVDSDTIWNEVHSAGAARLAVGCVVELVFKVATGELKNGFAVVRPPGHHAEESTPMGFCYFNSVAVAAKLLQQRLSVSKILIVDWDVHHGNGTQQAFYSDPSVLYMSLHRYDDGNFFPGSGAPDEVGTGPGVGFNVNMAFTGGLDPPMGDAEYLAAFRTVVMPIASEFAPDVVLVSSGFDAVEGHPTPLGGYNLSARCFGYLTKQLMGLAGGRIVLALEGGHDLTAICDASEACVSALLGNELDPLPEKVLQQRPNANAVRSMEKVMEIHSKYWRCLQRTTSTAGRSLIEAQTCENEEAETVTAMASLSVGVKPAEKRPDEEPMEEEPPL
Procedure: as §1, §2

Chain of HDAC2 (Q92769 whole entry): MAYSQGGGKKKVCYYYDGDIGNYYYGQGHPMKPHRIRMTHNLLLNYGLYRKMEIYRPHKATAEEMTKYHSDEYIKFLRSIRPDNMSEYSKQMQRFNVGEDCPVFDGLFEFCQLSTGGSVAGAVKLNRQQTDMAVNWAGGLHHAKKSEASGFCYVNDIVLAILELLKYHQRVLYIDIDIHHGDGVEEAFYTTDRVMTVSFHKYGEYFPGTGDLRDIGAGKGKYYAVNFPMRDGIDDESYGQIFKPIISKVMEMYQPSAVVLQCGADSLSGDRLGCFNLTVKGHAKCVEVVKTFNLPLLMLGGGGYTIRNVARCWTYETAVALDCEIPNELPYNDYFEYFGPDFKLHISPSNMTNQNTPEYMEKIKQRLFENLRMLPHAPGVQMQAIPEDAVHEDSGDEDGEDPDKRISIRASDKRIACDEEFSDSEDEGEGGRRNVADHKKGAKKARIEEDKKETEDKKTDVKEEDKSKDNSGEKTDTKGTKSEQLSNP
Chain of HDAC1 (Q13547 whole entry): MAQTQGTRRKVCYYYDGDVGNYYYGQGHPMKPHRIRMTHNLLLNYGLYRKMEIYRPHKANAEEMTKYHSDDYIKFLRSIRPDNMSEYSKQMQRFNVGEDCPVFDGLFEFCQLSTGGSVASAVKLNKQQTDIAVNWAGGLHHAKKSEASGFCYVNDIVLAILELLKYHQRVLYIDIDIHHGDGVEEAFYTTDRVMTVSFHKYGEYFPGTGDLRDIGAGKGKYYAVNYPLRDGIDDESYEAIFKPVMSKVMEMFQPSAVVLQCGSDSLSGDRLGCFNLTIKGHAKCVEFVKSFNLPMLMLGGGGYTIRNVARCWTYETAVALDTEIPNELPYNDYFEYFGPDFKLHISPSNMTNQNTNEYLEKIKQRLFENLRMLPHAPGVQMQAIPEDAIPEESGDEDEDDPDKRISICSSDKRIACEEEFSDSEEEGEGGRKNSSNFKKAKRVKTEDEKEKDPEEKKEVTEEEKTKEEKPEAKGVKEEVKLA
T6 sequence (P05413 whole entry): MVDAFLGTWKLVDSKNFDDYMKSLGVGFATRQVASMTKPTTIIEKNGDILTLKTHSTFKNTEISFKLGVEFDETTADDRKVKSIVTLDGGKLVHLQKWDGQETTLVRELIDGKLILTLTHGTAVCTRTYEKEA
T5 sequence (Q01469 whole entry): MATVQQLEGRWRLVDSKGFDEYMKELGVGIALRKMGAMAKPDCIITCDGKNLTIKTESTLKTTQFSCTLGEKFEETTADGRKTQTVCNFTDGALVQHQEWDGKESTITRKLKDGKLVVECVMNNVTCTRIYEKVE
Chain of HDAC 5 (Q9UQL6 whole entry): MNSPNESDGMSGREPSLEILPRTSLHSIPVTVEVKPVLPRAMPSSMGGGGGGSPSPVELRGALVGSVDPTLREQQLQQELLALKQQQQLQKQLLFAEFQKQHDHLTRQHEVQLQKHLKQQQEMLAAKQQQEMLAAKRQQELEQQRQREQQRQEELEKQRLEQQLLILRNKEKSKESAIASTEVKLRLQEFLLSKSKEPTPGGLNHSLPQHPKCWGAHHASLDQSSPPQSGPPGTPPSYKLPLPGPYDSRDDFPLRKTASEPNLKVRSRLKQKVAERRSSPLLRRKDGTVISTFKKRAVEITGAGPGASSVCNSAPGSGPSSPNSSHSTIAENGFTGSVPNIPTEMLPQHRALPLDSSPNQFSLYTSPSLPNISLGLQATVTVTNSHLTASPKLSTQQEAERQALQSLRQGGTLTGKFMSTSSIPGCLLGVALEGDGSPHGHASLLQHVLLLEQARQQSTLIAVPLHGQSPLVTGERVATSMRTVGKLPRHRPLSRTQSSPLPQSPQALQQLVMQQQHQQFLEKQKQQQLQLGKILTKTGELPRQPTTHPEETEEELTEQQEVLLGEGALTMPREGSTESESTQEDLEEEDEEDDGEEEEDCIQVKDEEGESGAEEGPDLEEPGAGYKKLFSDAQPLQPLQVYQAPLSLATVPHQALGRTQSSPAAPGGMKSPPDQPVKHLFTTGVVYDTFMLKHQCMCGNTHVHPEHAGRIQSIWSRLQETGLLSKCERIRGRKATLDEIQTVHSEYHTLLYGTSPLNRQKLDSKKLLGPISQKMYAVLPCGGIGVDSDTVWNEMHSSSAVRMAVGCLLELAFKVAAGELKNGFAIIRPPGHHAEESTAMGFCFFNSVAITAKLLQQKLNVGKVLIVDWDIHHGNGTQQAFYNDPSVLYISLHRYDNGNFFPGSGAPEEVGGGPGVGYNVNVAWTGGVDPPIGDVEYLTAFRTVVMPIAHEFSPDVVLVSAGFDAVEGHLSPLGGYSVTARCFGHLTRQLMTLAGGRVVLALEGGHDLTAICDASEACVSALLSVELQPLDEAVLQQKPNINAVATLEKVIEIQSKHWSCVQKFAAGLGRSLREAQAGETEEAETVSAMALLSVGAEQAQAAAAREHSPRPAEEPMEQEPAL
Chain of HDAC 9 (Q9UKV0 whole entry): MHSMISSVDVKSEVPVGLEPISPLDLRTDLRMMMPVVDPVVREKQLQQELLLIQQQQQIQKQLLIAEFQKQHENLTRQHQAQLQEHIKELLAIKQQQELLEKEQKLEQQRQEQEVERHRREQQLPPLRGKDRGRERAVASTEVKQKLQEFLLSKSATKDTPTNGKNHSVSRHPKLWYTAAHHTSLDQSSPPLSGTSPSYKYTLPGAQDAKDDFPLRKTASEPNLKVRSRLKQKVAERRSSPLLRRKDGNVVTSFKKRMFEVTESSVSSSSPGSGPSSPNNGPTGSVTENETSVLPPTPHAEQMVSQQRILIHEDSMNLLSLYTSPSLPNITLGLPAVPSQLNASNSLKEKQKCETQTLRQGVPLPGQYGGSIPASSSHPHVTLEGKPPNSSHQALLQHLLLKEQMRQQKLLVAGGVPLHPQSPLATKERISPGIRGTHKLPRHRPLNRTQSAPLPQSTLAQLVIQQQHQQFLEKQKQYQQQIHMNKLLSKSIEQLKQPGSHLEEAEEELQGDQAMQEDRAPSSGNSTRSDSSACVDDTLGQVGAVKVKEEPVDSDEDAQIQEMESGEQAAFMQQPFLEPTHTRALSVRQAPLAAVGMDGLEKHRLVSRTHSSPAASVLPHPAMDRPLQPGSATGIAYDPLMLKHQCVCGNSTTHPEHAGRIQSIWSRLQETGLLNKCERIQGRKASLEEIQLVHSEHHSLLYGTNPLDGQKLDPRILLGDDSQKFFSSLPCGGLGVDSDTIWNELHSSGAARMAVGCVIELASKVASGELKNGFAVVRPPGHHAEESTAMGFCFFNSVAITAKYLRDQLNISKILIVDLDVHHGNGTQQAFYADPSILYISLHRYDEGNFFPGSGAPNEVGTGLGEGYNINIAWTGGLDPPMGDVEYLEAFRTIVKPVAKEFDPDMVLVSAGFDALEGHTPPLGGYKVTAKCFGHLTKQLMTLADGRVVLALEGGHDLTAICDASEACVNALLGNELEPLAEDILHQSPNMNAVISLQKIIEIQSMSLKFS

Compound	FAAH IC50 (FAAH)	HDAC 1 activity, % of water-treated controls (HDAC1; 25 ug/ml)	HDAC 1 activity, % of water-treated controls (HDAC1; 50 ug/ml)	HDAC 1 activity, % of water-treated controls (HDAC1; 100 ug/ml)	MAGL IC50 (MAGL)	HDAC 10 activity, % of water-treated controls (HDAC10; 25 ug/ml)	HDAC 10 activity, % of water-treated controls (HDAC10; 50 ug/ml)	HDAC 10 activity, % of water-treated controls (HDAC10; 100 ug/ml)	HDAC 10 activity, % of water-treated controls (HDAC10; 200 ug/ml)	HDAC 2 activity, % of water-treated controls (HDAC2; 25 ug/ml)	HDAC 2 activity, % of water-treated controls (HDAC2; 50 ug/ml)	HDAC 2 activity, % of water-treated controls (HDAC2; 100 ug/ml)	HDAC 2 activity, % of water-treated controls (HDAC2; 200 ug/ml)	HDAC 8 activity, % of water-treated controls (HDAC 8; 5 ug/ml)	HDAC 8 activity, % of water-treated controls (HDAC 8; 25 ug/ml)	HDAC 8 activity, % of water-treated controls (HDAC 8; 50 ug/ml)	HDAC 8 activity, % of water-treated controls (HDAC 8; 100 ug/ml)	HDAC 8 activity, % of water-treated controls (HDAC 8; 200 ug/ml)	FABP-5 IC50 (FABP-5)	FABP-3 IC50 (FABP-3)	also measured
CCCC(=O)NCCCCC(NC(=O)CCC)C(=O)[O-].CCCC(=O)NCCCCC(NC(=O)CCC)C(=O)[O-].[Ca+2] (stereo not shown) [Ca di-(di-n-butyryl lysinate), calcium di-(di-n-butyryl lysinate)]	213.6 µg/mL	80%	89%	135%	37.6 µg/mL	105%	103%	104%	90%	96%	90%	97%	94%	91%	148%	174%	155%	111%	786 µg/mL	188.6 µg/mL	HDAC 5 activity, % of water-treated controls (HDAC 5; 5 ug/ml): 144%; HDAC 5 activity, % of water-treated controls (HDAC 5; 25 ug/ml): 128%; HDAC 5 activity, % of water-treated controls (HDAC 5; 50 ug/ml): 123%; HDAC 5 activity, % of water-treated controls (HDAC 5; 100 ug/ml): 117%; HDAC 5 activity, % of water-treated controls (HDAC 5; 200 ug/ml): 88%; HDAC 9 activity, % of water-treated controls (HDAC 9; 5 ug/ml): 212%; HDAC 9 activity, % of water-treated controls (HDAC 9; 25 ug/ml): 178%; HDAC 9 activity, % of water-treated controls (HDAC 9; 50 ug/ml): 242%; HDAC 9 activity, % of water-treated controls (HDAC 9; 100 ug/ml): 289%; HDAC 9 activity, % of water-treated controls (HDAC 9; 200 ug/ml): 258%
CCCC(=O)NCCCC[C@H](NC(=O)CCC)C(=O)[O-].CCCC(=O)NCCCC[C@H](NC(=O)CCC)C(=O)[O-].[Zn+2] [Zn di-(di-n-butyryl lysinate), Zinc di-(di-n-butyryl lysinate)]	368.7 µg/mL	32%	38%	49%	88.8 µg/mL	15%	13%	9%	7%	20%	20%	17%	15%	15%	15%	15%	13%	17%	644 µg/mL	242.4 µg/mL	HDAC 1 activity, % of water-treated controls (HDAC1; 5 ug/ml): 30%; HDAC 1 activity, % of water-treated controls (HDAC1; 200 ug/ml): 45%; HDAC 4 activity, % of water-treated controls (HDAC 4; 25 ug/ml): 120%; HDAC 4 activity, % of water-treated controls (HDAC 4; 50 ug/ml): 60%; HDAC 4 activity, % of water-treated controls (HDAC 4; 100 ug/ml): 39%; HDAC 10 activity, % of water-treated controls (HDAC10; 5 ug/ml): 21%; HDAC 5 activity, % of water-treated controls (HDAC 5; 25 ug/ml): 89%; HDAC 5 activity, % of water-treated controls (HDAC 5; 50 ug/ml): 65%; HDAC 5 activity, % of water-treated controls (HDAC 5; 100 ug/ml): 33%; HDAC 5 activity, % of water-treated controls (HDAC 5; 200 ug/ml): 17%; HDAC 9 activity, % of water-treated controls (HDAC 9; 5 ug/ml): 39%; HDAC 9 activity, % of water-treated controls (HDAC 9; 25 ug/ml): 29%; HDAC 9 activity, % of water-treated controls (HDAC 9; 50 ug/ml): 25%; HDAC 9 activity, % of water-treated controls (HDAC 9; 100 ug/ml): 19%; HDAC 9 activity, % of water-treated controls (HDAC 9; 200 ug/ml): 20%
Zinc Di-lysinate [Zn dilysinate]	791.8 µg/mL	52%	44%	32%	207.0 µg/mL	19%	12%	9%	6%	12%	1%	1%	9%	13%	13%	14%	13%	12%	3,014 μg/ml	255.2 µg/mL	HDAC 4 activity, % of water-treated controls (HDAC 4; 25 ug/ml): 100%; HDAC 4 activity, % of water-treated controls (HDAC 4; 50 ug/ml): 92%; HDAC 4 activity, % of water-treated controls (HDAC 4; 100 ug/ml): 63%; HDAC 5 activity, % of water-treated controls (HDAC 5; 25 ug/ml): 73%; HDAC 5 activity, % of water-treated controls (HDAC 5; 50 ug/ml): 52%; HDAC 5 activity, % of water-treated controls (HDAC 5; 100 ug/ml): 31%; HDAC 5 activity, % of water-treated controls (HDAC 5; 200 ug/ml): 14%; HDAC 9 activity, % of water-treated controls (HDAC 9; 5 ug/ml): 21%; HDAC 9 activity, % of water-treated controls (HDAC 9; 25 ug/ml): 18%; HDAC 9 activity, % of water-treated controls (HDAC 9; 50 ug/ml): 15%; HDAC 9 activity, % of water-treated controls (HDAC 9; 100 ug/ml): 15%; HDAC 9 activity, % of water-treated controls (HDAC 9; 200 ug/ml): 16%
